Test results as given in patent publication US11827628B2, “Compositions and methods for inhibition of the JAK pathway” (Rigel Pharmaceuticals, Inc., priority 2005, dated 2023).
Read-outs that look alike come from different tables or passages of the source.

Test system: up-regulation of ICAM-1 (CD54) by IFNγ in U937 human monocytic cells
Assay: U937 IFNγ ICAM1 FACS Assay
Type: cell-based
Conditions: U937 cells stimulated with IFNγ, ICAM-1 expression by FACS, read-out: IC50, Example 44
In short: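 U937 cells in 10% FCS RPMI were preincubated 30 min at 37 °C with an 8-point, 3-fold compound dilution series in duplicate, then stimulated with IFNγ for 18–24 h. Surface ICAM-1 was stained with APC anti-ICAM-1 and read by flow cytometry as geometric mean on live-gated cells. EC50 was derived.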

| Compound | IC50 | IC50 (sodium Salt) |
| --- | --- | --- |
| Cc1cc(Nc2nc(Nc3ccc(C)c(S(N)(=O)=O)c3)ncc2F)ccc1OCC(N)=O [Compound I-95, N4-(4-Aminocarbonylmethoxy-3-methyl)phenyl-N2-(3-aminosulfonyl-4-methyl)phenyl-5-fluoro-2,4-pyrimidinediamine] | 6300 nM | – |
| COc1cc(Nc2ncc(F)c(Nc3ccc(OC(C)C#N)c(C)c3)n2)ccc1S(N)(=O)=O (racemic) [Compound I-64, Racemic N2-(4-Aminosulfonyl-3-methoxy)phenyl-N4-[4-(1-cyano)ethoxy-3-methyl]phenyl-5-fluoro-2,4-pyrimidinediamine] | 1150 nM | – |
| Cc1cc(Nc2nc(Nc3cccc(S(N)(=O)=O)c3)ncc2F)ccc1OCC(N)=O [Compound I-92, N4-(4-Aminocarbonylmethoxy-3-methyl)phenyl-N2-(3-aminosulfonyl)phenyl-5-fluoro-2,4-pyrimidinediamine] | 15600 nM | – |
| Cc1ccc(Nc2ncc(F)c(Nc3ccc(OC(C)(C)C#N)cc3)n2)cc1S(N)(=O)=O [Compound I-73, N2-(3-Aminosulfonyl-4-methyl)phenyl-N4-[4-(1-cyano-1-methyl)ethoxy]phenyl-5-fluoro-2,4-pyrimidinediamine] | 1060 nM | – |
| Cc1cc(Nc2nc(Nc3cccc(S(N)(=O)=O)c3)ncc2F)cc(C)c1OCC(N)=O [Compound I-93, N4-(4-Aminocarbonylmethoxy-3,5-dimethyl)phenyl-N2-(3-aminosulfonyl)phenyl-5-fluoro-2,4-pyrimidinediamine] | 11100 nM | – |
| Cc1ccc(Nc2ncc(F)c(Nc3ccc(Cn4ccnc4)cc3)n2)cc1S(N)(=O)=O [III-82, N2-(3-Aminosulfonyl-4-methylphenyl)-5-fluoro-N4-[4-(1-imidazolylmethyl)phenyl]-2,4-pyrimidinediamine] | 2270 nM | – |
| Cc1ccc(Nc2ncc(F)c(Nc3cccc(OCC(N)=O)c3)n2)cc1S(N)(=O)=O [Compound I-90, N4-(3-Aminocarbonylmethoxy)phenyl-N2-(3-aminosulfonyl-4-methyl)phenyl-5-fluoro-2,4-pyrimidinediamine] | 6160 nM | – |
| CC(C#N)Oc1ccc(Nc2nc(Nc3ccc(S(N)(=O)=O)cc3)ncc2F)cc1 (racemic) [Compound I-66, Racemic N2-(4-Aminosulfonyl)phenyl-N4-[4-(1-cyano)ethoxy]phenyl-5-fluoro-2,4-pyrimidinediamine] | 689 nM | – |
| CC(C)(C#N)Oc1ccc(Nc2nc(Nc3cccc(S(N)(=O)=O)c3)ncc2F)cc1 [Compound I-76, N2-(3-Aminosulfonyl)phenyl-N4-[4-(1-cyano-1-methyl)ethoxy]phenyl-5-fluoro-2,4-pyrimidinediamine] | 1120 nM | – |
| Cc1cc(Nc2nc(Nc3ccc(F)c(S(N)(=O)=O)c3)ncc2F)ccc1OCC#N [Compound I-34, N2-(3-Aminosulfonyl-4-fluoro)phenyl-N4-(4-cyanomethoxy-3-methyl)phenyl-5-fluoro-2,4-pyrimidinediamine] | 1050 nM | – |
| CC(C)(C#N)Oc1ccc(Nc2nc(Nc3ccc(S(N)(=O)=O)cc3)ncc2F)cc1 [Compound I-75, N2-(4-Aminosulfonyl)phenyl-N4-[4-(1-cyano-1-methyl)ethoxy]phenyl-5-fluoro-2,4-pyrimidinediamine] | 3100 nM | – |
| NS(=O)(=O)c1cccc(Nc2ncc(F)c(Nc3ccc(Cn4ccnc4)cc3)n2)c1 [III-81, N2-(3-Aminosulfonylphenyl)-5-fluoro-N4-[4-(1-imidazolylmethyl)phenyl]-2,4-pyrimidinediamine] | 3430 nM | – |
| CNS(=O)(=O)c1cc(Nc2ncc(F)c(Nc3ccc(Cc4ccncc4)cc3)n2)ccc1C [III-75, 5-Fluoro-N2-[3-(N-methylaminosulfony)-4-methylphenyl]-5-fluoro-N4-[4-(4-pyridinylmethyl)phenyl]-2,4-pyrimidinediamine] | 1770 nM | – |
| Cc1ccc(Nc2ncc(F)c(Nc3ccc(OCC#N)cc3)n2)cc1S(=O)(=O)NC(=O)C(C)C [Compound I-37, N4-(4-Cyanomethyleneoxy)phenyl-5-fluoro-N2-(3-isobutyrylaminosulfonyl-4-methyl)phenyl-2,4-pyrimidinediamine] | 5740 nM | – |
| Cc1ccc(Nc2ncc(F)c(Nc3ccc4c(c3)CCN4S(C)(=O)=O)n2)cc1S(N)(=O)=O [VII-61, N2-(3-Aminosulfonyl-4-methylphenyl)-5-fluoro-N4-[4-(1-methylsulfonyl)indolin-5-yl]-2,4-pyrimidinediamine] | 356 nM | – |
| COc1cc(Nc2ncc(F)c(Nc3ccc(OC(C)C#N)cc3)n2)ccc1S(N)(=O)=O (racemic) [Compound I-70, Racemic N2-(4-Aminosulfonyl-3-methoxy)phenyl-N4-[4-(1-cyano)ethoxy]phenyl-5-fluoro-2,4-pyrimidinediamine] | 384 nM | – |
| CC(C#N)Oc1ccc(Nc2nc(Nc3ccc(F)c(S(N)(=O)=O)c3)ncc2F)cc1 (racemic) [Compound I-68, Racemic N2-(3-Aminosulfonyl-4-fluoro)phenyl-N4-[4-(1-cyano)ethoxy]phenyl-5-fluoro-2,4-pyrimidinediamine] | 913 nM | – |

| Compound | IC50 | IC50 (sodium Salt) |
| --- | --- | --- |
| CC(C#N)Oc1ccc(Nc2nc(Nc3cccc(S(N)(=O)=O)c3)ncc2F)cc1 (racemic) [Compound I-65, Racemic N2-(3-Aminosulfonyl)phenyl-N4-[4-(1-cyano)ethoxy]phenyl-5-fluoro-2,4-pyrimidinediamine] | 316 nM | – |
| CC(C)(C#N)Oc1ccc(Nc2nc(Nc3ccc(F)c(S(N)(=O)=O)c3)ncc2F)cc1 [Compound I-74, N2-(3-Aminosulfonyl-4-fluoro)phenyl-N4-[4-(1-cyano-1-methyl)ethoxy]phenyl-5-fluoro-2,4-pyrimidinediamine] | 1760 nM | – |
| Cc1cc(Nc2nc(Nc3ccc(S(N)(=O)=O)cc3)ncc2F)ccc1OC(C)C#N (racemic) [Compound I-60, Racemic N2-(4-Aminosulfonyl)phenyl-N4-[4-(1-cyano)ethoxy-3-methyl]phenyl-5-fluoro-2,4-pyrimidinediamine] | 848 nM | – |
| Cc1cc(Nc2nc(Nc3cccc(S(N)(=O)=O)c3)ncc2F)cc(C)c1OC(C)C#N (racemic) [Compound I-71, Racemic N2-(3-Aminosulfonyl)phenyl-N4-[4-(1-cyano)ethoxy-3,5-dimethyl]phenyl-5-fluoro-2,4-pyrimidinediamine] | 328 nM | – |
| Cc1cc(Nc2nc(Nc3ccc(C)c(S(N)(=O)=O)c3)ncc2F)ccc1OC(C)C#N (racemic) [Compound I-62, Racemic N2-(3-Aminosulfonyl-4-methyl)phenyl-N4-[4-(1-cyano)ethoxy-3-methyl]phenyl-5-fluoro-2,4-pyrimidinediamine] | 735 nM | – |
| CNS(=O)(=O)c1cc(Nc2ncc(F)c(Nc3ccc(Cn4ccnc4)cc3)n2)ccc1C [III-83, 5-Fluoro-N2-[3-(N-methylaminosulfony)-4-methylphenyl]-5-fluoro-N4-[4-(1-imidazolylmethyl)phenyl]-2,4-pyrimidinediamine] | 1360 nM | – |
| Cc1cnc(Nc2ccc(S(N)(=O)=O)cc2)nc1Nc1ccc(OCC#N)cc1 [Compound I-57, N2-(4-Aminosulfonylphenyl)-N4-(4-cyanomethoxyphenyl-5)-methyl-2,4-pyrimidinediamine] | 140 nM | – |
| Cc1cc(Nc2nc(Nc3ccc(F)c(S(N)(=O)=O)c3)ncc2F)cc(C)c1OCC#N [Compound I-35, N2-(3-Aminosulfonyl-4-fluoro)phenyl-N4-(4-cyanomethoxy-3,5-dimethyl)phenyl-5-fluoro-2,4-pyrimidinediamine] | 1820 nM | – |
| Cc1ccc(Nc2ncc(F)c(Nc3ccc(OCC(N)=O)cc3)n2)cc1S(N)(=O)=O [Compound I-94, N4-(4-Aminocarbonylmethoxy)phenyl-N2-(3-aminosulfonyl-4-methyl)phenyl-5-fluoro-2,4-pyrimidinediamine] | 5670 nM | – |
| Cc1cc(Nc2nc(Nc3cccc(S(N)(=O)=O)c3)ncc2F)ccc1OC(C)C#N (racemic) [Compound I-61, Racemic N2-(3-Aminosulfonyl)phenyl-N4-[4-(1-cyano)ethoxy-3-methyl]phenyl-5-fluoro-2,4-pyrimidinediamine] | 427 nM | – |
| CCC(=O)NS(=O)(=O)c1cccc(Nc2ncc(F)c(Nc3ccc(OCc4nc(C)no4)cc3)n2)c1 [Compound I-273] | – | 5100 nM |
| Cc1ccc(Nc2ncc(F)c(Nc3ccc(OC(C)C#N)cc3)n2)cc1S(N)(=O)=O (racemic) [Compound I-67, Racemic N2-(3-Aminosulfonyl-4-methyl)phenyl-N4-[4-(1-cyano)ethoxy]phenyl-5-fluoro-2,4-pyrimidinediamine] | 239 nM | – |
| CNS(=O)(=O)c1cc(Nc2ncc(F)c(NCCc3ccc(-c4ccncc4)cc3)n2)ccc1C [III-78, 5-Fluoro-N2-[3-N-(methyl)aminosulfonyl-4-methylphenyl]-N4-[4-(4-pyridinyl)phenethyl]-2,4-pyrimidinediamine] | 22900 nM | – |
| Cc1cc(Nc2nc(Nc3ccc(S(N)(=O)=O)cc3)ncc2F)cc(C)c1OC(C)C#N (racemic) [Compound I-63, Racemic N2-(4-Aminosulfonyl)phenyl-N4-[4-(1-cyano)ethoxy-3,5-dimethyl]phenyl-5-fluoro-2,4-pyrimidinediamine] | 691 nM | – |
| Cc1ccc(Nc2ncc(F)c(Nc3cc(C)c(OC(C)C#N)c(C)c3)n2)cc1S(N)(=O)=O (racemic) [Compound I-72, Racemic N2-(3-Aminosulfonyl-4-methyl)phenyl-N4-[4-(1-cyano)ethoxy-3,5-dimethyl]phenyl-5-fluoro-2,4-pyrimidinediamine] | 574 nM | – |
| Cc1ccc(Nc2ncc(F)c(Nc3ccc(OCC#N)c(Cl)c3)n2)cc1S(N)(=O)=O [Compound I-43, N2-(3-Aminosulfonyl-4-methylphenyl)-N4-(3-chloro-4-cyanomethoxypheny)-5-fluoro-2,4-pyrimidinediamine] | 771 nM | – |
